Literature values, collected in patent US20250248432A1, “MIXTURE COMPRISING D-ALLULOSE AND TASTE MODIFYING COMPOUNDS” (SYMRISE AG, priority 2019, published 2025).

Conditions: relative to sucrose

O=C(CO)C(O)C(O)C(O)CO [Allulose, D-allulose]
sweetness intensity of sucrose: about 70%
